From patent publication US12612412B2, “Antiviral heterocyclic compounds” (Enanta Pharmaceuticals, Inc., priority 2021, dated 2026)

tested on: genotype A, "Long" strain RSV; assay: RSV-A assay (CPE protection in Hep-2 cells, ATPlite readout); format: cell-based, Human respiratory syncytial virus (HRSV); settings: human respiratory syncytial virus, genotype A “Long” strain RSV, MOI 0.1, CPE protection, read-out: Human RSV-A (“Long”)
Source text: Hep-2 cells, (originally derived from tumors grown in irradiated-cortisonised weanling rats that had been injected with epidermoid carcinoma tissue from the larynx of a person, but later found to be indistinguishable from HeLa cells by PCR DNA analysis), were used for the culturing of genotype A, “Long” strain RSV. Flasks were inoculated with RSV and viral stocks were collected once cytopathic effect (CPE) was greater than 90%. Viral stocks in 25% sucrose media were snap frozen using liquid nitrogen to increase viral stability. Viral stock titers were quantified by tissue culture infectious dose 50% (TCID50) using 8,000 cells per well and 3-fold viral dilutions across a 96-well plate, cultured for 4 days. Viral stock titers were also quantified by a plaque forming unit assay, as described elsewhere.
Following extensive parameter testing, the final assay is run as follows: Hep-2 cells are seeded into the inner 60 wells of a 96-well plate at 8,000 cells per well in a volume of 50 μL using Growth Media (DMEM without phenol red, 1% L-Glut, 1% Penn/Strep, 1% nonessential amino acids, 10% heat-inactivated FBS). 2-fold serial dilutions of control and test compounds are added to the wells in duplicate in a total volume of 25 μL. Viral stock is then added to the wells at a multiplicity of infection (MOI) of 0.1 in a volume of 25 μL, bringing the total volume of each well to 100 μL. The MOI is calculated using the PFU/mL, or TCID50 if unavailable. Each 96-well plate has a control column of 6 wells with cells and virus but no compound (negative control, max CPE), a column with cells but no compound or virus (positive control, minimum CPE), and a column with no cells or virus or compound (background plate/reagent control). The control wells with cells but no virus are given an additional 25 μL of growth media containing an equal quantity of sucrose as those wells receiving the viral stock in order to keep consistent in media and volume conditions. The outer wells of the plate are filled with 125 μL of moat media (DMEM, 1% Penn/Strep) to act as a thermal and evaporative moat around the test wells. Following a 5-day incubation period, the plates are read using ATPlite (50 uL added per well), which quantifies the amount of ATP (a measure of cell health) present in each well. Assay plates are read using the Envision luminometer. […] EC50 ranges are as follows: A<0.2 μM; B>0.2 μM.

Row | EC50 [nM] | Compound
1 | > 200 | C[C@]1(C(N)=O)COc2c1cc([C@@](O)(CNC(=O)c1ccc3[nH]c(C4CC4)nc3c1)C(F)(F)F)nc2-c1ccc(F)cc1 [Example 193]
2 | < 200 | Cc1cc(C(=O)NC[C@](O)(c2cc3c(c(-c4ccc(F)cc4)n2)OC[C@]3(C)C(N)=O)C(F)(F)F)cc2nc[nH]c12 [Example 194]
3 | < 200 | C[C@]1(C(N)=O)COc2c1cc([C@@](O)(CNC(=O)c1cc(Br)c3[nH]cnc3c1)C(F)(F)F)nc2-c1ccc(F)cc1 [Example 195]
4 | > 200 | C[C@]1(C(N)=O)COc2c1cc([C@@](O)(CNC(=O)c1ccc3cc[nH]c3c1)C(F)(F)F)nc2-c1ccc(F)cc1 [Example 196]
5 | < 200 | C[C@]1(C(N)=O)COc2c1cc([C@@](O)(CNC(=O)c1cc(F)c3[nH]ccc3c1)C(F)(F)F)nc2-c1ccc(F)cc1 [Example 197]
6 | > 200 | C[C@]1(C(N)=O)COc2c1cc([C@@](O)(CNC(=O)c1cnn3cccc3c1Cl)C(F)(F)F)nc2-c1ccc(F)cc1 [Example 198]
7 | > 200 | C[C@]1(C(N)=O)COc2c1cc([C@@](O)(CNC(=O)c1cnn3cccc3c1)C(F)(F)F)nc2-c1ccc(F)cc1 [Example 201]
8 | < 200 | C[C@]1(C(N)=O)COc2c1cc([C@@](O)(CNC(=O)c1cc(Br)c3oc(N)nc3c1)C(F)(F)F)nc2-c1ccc(F)cc1 [Example 202]
9 | < 200 | C[C@]1(C(N)=O)COc2c1cc([C@@](O)(CNC(=O)c1cc(Br)c3nc(N)oc3c1)C(F)(F)F)nc2-c1ccc(F)cc1 [Example 203]
10 | < 200 | C[C@]1(C(N)=O)COc2c1cc([C@@](O)(CNC(=O)c1cc(Br)c3[nH]c(C4CC4)nc3c1)C(F)(F)F)nc2-c1ccc(F)cc1 [Example 204]
11 | > 200 | C[C@]1(C(N)=O)COc2c1cc([C@@](O)(CNC(=O)c1ccc3[nH]c(C4CC4)cc3c1)C(F)(F)F)nc2-c1ccc(F)cc1 [Example 205]
12 | < 200 | C[C@]1(C(N)=O)COc2c1cc([C@@](O)(CNC(=O)c1cc(OC3CC3)c3[nH]ccc3c1)C(F)(F)F)nc2-c1ccc(F)cc1 [Example 206]
13 | > 200 | COc1ccccc1-c1cc(C(=O)NC[C@](O)(c2cc3c(c(-c4ccc(F)cc4)n2)OC[C@]3(C)C(N)=O)C(F)(F)F)n[nH]1 [Example 207]
14 | > 200 | COc1cccc(-c2cc(C(=O)NC[C@](O)(c3cc4c(c(-c5ccc(F)cc5)n3)OC[C@]4(C)C(N)=O)C(F)(F)F)n[nH]2)c1 [Example 208]
15 | > 200 | COc1ccc(-c2cc(C(=O)NC[C@](O)(c3cc4c(c(-c5ccc(F)cc5)n3)OC[C@]4(C)C(N)=O)C(F)(F)F)n[nH]2)cc1 [Example 209]
16 | < 200 | C[C@]1(C(N)=O)COc2c1cc([C@@](O)(CNC(=O)c1cc3c(OC(F)F)cccc3[nH]1)C(F)(F)F)nc2-c1ccc(F)cc1 [Example 211]
17 | > 200 | C[C@]1(C(N)=O)COc2c1cc([C@@](O)(CNC(=O)c1nc(-c3ccccc3)c[nH]1)C(F)(F)F)nc2-c1ccc(F)cc1 [Example 212]
18 | > 200 | COc1cccc(-n2ccc(C(=O)NC[C@](O)(c3cc4c(c(-c5ccc(F)cc5)n3)OC[C@]4(C)C(N)=O)C(F)(F)F)n2)c1 [Example 213]
19 | > 200 | COc1ccccc1-c1nc(C(=O)NC[C@](O)(c2cc3c(c(-c4ccc(F)cc4)n2)OC[C@]3(C)C(N)=O)C(F)(F)F)c[nH]1 [Example 214]
20 | < 200 | CC(C)(O)CNC(=O)Nc1cc(C(=O)NC[C@](O)(c2cc3c(c(-c4ccc(F)cc4)n2)OC[C@]3(C)C(N)=O)C(F)(F)F)cc2cc(C3CC3)cnc12 [Example 215]
21 | < 200 | Cc1cnc2c(NC(=O)OC3CC3)cc(C(=O)NC[C@](O)(c3cc4c(c(-c5ccc(F)cc5)n3)OC[C@]4(C)C(N)=O)C(F)(F)F)cc2c1 [Example 216]
22 | < 200 | COc1cc(C(=O)NC[C@](O)(c2cc3c(c(-c4ccc(F)cc4)n2)OC[C@]3(C)C(N)=O)C(F)(F)F)cc2c1NC(=O)C2 [Example 225]
23 | < 200 | Cc1cnc2c(NC(=O)NC34CC(O)(C3)C4)cc(C(=O)NC[C@](O)(c3cc4c(c(-c5ccc(F)cc5)n3)OC[C@]4(C)C(N)=O)C(F)(F)F)cc2c1 [Example 227]
24 | < 200 | COc1cc(C(=O)NC[C@](O)(c2cc3c(c(-c4ccc(F)c(Cl)c4)n2)OC[C@]3(C)C(N)=O)C(F)(F)F)cc2cc(Cl)c(C)nc12 [Example 228]
25 | < 200 | COc1cnc2ccc(C(=O)NC[C@](O)(c3cc4c(c(-c5ccc(F)cc5)n3)OC[C@]4(C)C(N)=O)C(F)(F)F)cc2c1 [Example 229]
26 | < 200 | COc1cc(C(=O)NC[C@](O)(c2cc3c(c(-c4ccc(F)cc4)n2)OC[C@]3(C)C(N)=O)C(F)(F)F)cc2cn(C3(C)CC3)nc12 [Example 232]

Further lines, the molecule ahead of its results:

Row | Compound | EC50 [nM]
27 | C[C@]1(C(N)=O)COc2c1cc([C@@](O)(CNC(=O)c1cc(F)c3cnn(C4CC4)c3c1)C(F)(F)F)nc2-c1ccc(F)cc1 [Example 146] | > 200
28 | COc1cc(C(=O)NC[C@](O)(c2cc3c(c(-c4ccc(F)cc4)n2)OC[C@]3(C)C(N)=O)C(F)(F)F)ccc1OC[C@@H](C)N [Example 150] | > 200
29 | CN[C@H](C)COc1ccc(C(=O)NC[C@](O)(c2cc3c(c(-c4ccc(F)cc4)n2)OC[C@]3(C)C(N)=O)C(F)(F)F)cc1OC [Example 151] | > 200
30 | C[C@]1(C(N)=O)COc2c1cc([C@@](O)(CNC(=O)c1ccc3nc(NC(=N)N)sc3c1)C(F)(F)F)nc2-c1ccc(F)cc1 [Example 159] | < 200
31 | C[C@]1(C(N)=O)COc2c1cc([C@@](O)(CNC(=O)c1ccc3nc(NCCO)sc3c1)C(F)(F)F)nc2-c1ccc(F)cc1 [Example 162] | > 200
32 | C[C@H](O)CNc1nc2ccc(C(=O)NC[C@](O)(c3cc4c(c(-c5ccc(F)cc5)n3)OC[C@]4(C)C(N)=O)C(F)(F)F)cc2s1 [Example 163] | < 200
33 | C[C@@H](O)CNc1nc2ccc(C(=O)NC[C@](O)(c3cc4c(c(-c5ccc(F)cc5)n3)OC[C@]4(C)C(N)=O)C(F)(F)F)cc2s1 [Example 164] | < 200
34 | Cc1cc2cc(C(=O)NC[C@](O)(c3cc4c(c(-c5ccc(F)cc5)n3)OC[C@]4(C)C(N)=O)C(F)(F)F)ccc2[nH]1 [Example 171] | < 200
35 | CCn1ncc2cc(C(=O)NC[C@](O)(c3cc4c(c(-c5ccc(F)cc5)n3)OC[C@]4(C)C(N)=O)C(F)(F)F)cc(Cl)c21 [Example 172] | > 200
36 | CCn1cc2cc(C(=O)NC[C@](O)(c3cc4c(c(-c5ccc(F)cc5)n3)OC[C@]4(C)C(N)=O)C(F)(F)F)cc(Cl)c2n1 [Example 173] | < 200
37 | Cc1cc2cc(C(=O)NC[C@](O)(c3cc4c(c(-c5ccc(F)cc5)n3)OC[C@]4(C)C(N)=O)C(F)(F)F)ccc2n1C [Example 175] | > 200
38 | Cn1ccc2cc(C(=O)NC[C@](O)(c3cc4c(c(-c5ccc(F)cc5)n3)OC[C@]4(C)C(N)=O)C(F)(F)F)ccc21 [Example 176] | > 200
39 | COc1cc(C(=O)NC[C@](O)(c2cc3c(c(-c4ccc(F)cc4)n2)OC[C@]3(C)C(N)=O)C(F)(F)F)nc2cc(C)nn12 [Example 180] | > 200
40 | Cc1cc2nc(C(=O)NC[C@](O)(c3cc4c(c(-c5ccc(F)cc5)n3)OC[C@]4(C)C(N)=O)C(F)(F)F)cc(C)n2n1 [Example 181] | > 200
41 | C[C@]1(C(N)=O)COc2c1cc([C@@](O)(CNC(=O)c1ccc3cc(C4CC4)cn3c1)C(F)(F)F)nc2-c1ccc(F)cc1 [Example 185] | > 200
42 | C[C@]1(C(N)=O)COc2c1cc([C@@](O)(CNC(=O)c1ccc3nc(C4CC4)cn3n1)C(F)(F)F)nc2-c1ccc(F)cc1 [Example 186] | > 200
43 | C[C@]1(C(N)=O)COc2c1cc([C@@](O)(CNC(=O)c1ccc3nc(NC(=O)[C@@H](N)CO)sc3c1)C(F)(F)F)nc2-c1ccc(F)cc1 [Example 187] | < 200
44 | Cc1cc2ccc(C(=O)NC[C@](O)(c3cc4c(c(-c5ccc(F)cc5)n3)OC[C@]4(C)C(N)=O)C(F)(F)F)cn2c1 [Example 189] | > 200
45 | C[C@]1(C(N)=O)COc2c1cc([C@@](O)(CNC(=O)c1ccc3sc(N)nc3c1)C(F)(F)F)nc2-c1ccc(F)cc1 [Example 190] | > 200
46 | C[C@]1(C(N)=O)COc2c1cc([C@@](O)(CNC(=O)c1ccc3oc(N)nc3c1)C(F)(F)F)nc2-c1ccc(F)cc1 [Example 191] | < 200
47 | COc1cc(C(=O)NC[C@](O)(c2cc3c(c(-c4ccc(F)cc4)n2)OC[C@]3(C)C(N)=O)C(F)(F)F)nc2cc(C3CC3)nn12 [Example 192] | > 200
